# Results taken from BindingDB's records for doi:10.1021/jm000130i (Duquesne University, 2000).
# Experiments:
# [1] = target: Dihydrofolate reductase (Lacticaseibacillus casei, UniProt P00381); test: Inhibitory concentration against Lactobacillus casei Dihydrofolate reductase
# [2] = target: T1, Bifunctional dihydrofolate reductase-thymidylate synthase (Toxoplasma gondii, UniProt Q07422); test: Inhibitory concentration against Toxoplasma gondii Dihydrofolate reductase
# T1 sequence (Q07422 whole entry): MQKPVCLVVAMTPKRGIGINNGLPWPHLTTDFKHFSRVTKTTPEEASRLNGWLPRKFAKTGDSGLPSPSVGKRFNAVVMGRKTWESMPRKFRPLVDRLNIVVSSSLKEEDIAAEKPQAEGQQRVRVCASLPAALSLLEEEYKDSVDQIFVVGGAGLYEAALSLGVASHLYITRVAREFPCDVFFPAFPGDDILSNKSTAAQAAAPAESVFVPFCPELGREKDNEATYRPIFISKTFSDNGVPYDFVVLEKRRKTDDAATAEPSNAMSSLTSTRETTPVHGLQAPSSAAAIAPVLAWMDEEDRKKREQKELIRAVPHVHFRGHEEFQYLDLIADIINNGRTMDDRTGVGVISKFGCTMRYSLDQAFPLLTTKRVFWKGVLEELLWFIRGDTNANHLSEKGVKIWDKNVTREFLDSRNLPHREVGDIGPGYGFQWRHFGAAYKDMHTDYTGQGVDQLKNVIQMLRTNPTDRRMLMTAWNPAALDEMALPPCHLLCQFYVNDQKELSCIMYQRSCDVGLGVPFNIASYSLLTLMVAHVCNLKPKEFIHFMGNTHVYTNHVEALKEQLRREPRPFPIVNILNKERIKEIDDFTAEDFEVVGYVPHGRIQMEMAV
# Chain of Dihydrofolate reductase (P00381 whole entry): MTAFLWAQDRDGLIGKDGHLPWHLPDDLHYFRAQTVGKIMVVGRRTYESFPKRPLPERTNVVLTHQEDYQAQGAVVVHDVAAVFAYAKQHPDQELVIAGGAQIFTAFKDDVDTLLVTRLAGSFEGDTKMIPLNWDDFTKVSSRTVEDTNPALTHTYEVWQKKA
smiles,measurement,setting,value
C/C(=C\c1coc2nc(N)nc(N)c12)c1ccc(C(=O)N[C@@H](CCC(=O)O)C(=O)O)cc1,IC50,[1],4.4 µM
same,IC50,[2],4.4 µM
